The values that follow come from patent US8598204B2, “1,2-dihydro-2-oxoquinoline compounds as 5-HT4 receptor ligands” (Suven Life Sciences Limited, priority 2009, dated 2013).

Broadly, the EC50 is the midpoint of the concentration-response curve.

Where a name gives a salt, the structure may show the parent alone.

In the first experiment the target is T1, recombinant human 5-HT4 receptor (Homo sapiens, UniProt Q13639).
T1 construct: expressed in transfected cells
T1 sequence (Q13639 whole entry): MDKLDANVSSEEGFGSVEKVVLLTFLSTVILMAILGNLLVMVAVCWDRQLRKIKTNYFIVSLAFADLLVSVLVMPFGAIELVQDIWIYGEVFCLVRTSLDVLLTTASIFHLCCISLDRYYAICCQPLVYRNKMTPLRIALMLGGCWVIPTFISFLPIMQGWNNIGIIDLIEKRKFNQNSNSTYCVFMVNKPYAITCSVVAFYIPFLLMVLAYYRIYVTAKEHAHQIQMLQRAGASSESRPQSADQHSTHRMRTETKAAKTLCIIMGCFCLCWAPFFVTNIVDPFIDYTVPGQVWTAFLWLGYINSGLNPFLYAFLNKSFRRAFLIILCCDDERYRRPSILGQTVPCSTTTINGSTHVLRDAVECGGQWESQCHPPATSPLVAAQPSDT
Description: Determination of EC50 values for 5-HT4 receptor (CRE-luciferase reporter, CHO cells). It is filed as cell-based. The settings on record: stable CHO cell line expressing recombinant human 5-HT4 receptor and pCRE-Luc reporter; 4 hours incubation; luciferase activity. How it is done: A stable CHO cell line expressing recombinant human 5-HT4 receptor and pCRE-Luc reporter system was used for cell-based assay. The assay offers a non-radioactive based approach to determine binding of a compound to GPCRs. In this specific assay, the level of intracellular cyclic AMP which is modulated by activation or inhibition of the receptor is measured. The recombinant cells harbor luciferase reporter gene under the control of cAMP response element.
The above cells were grown in 96 well clear bottom white plates in Hams F12 medium containing 10% fetal bovine serum (FBS). Prior to the addition of compounds or standard agonist, cells were serum starved overnight. Increasing concentrations of test compounds were added in OptiMEM medium to the cells. The incubation was continued at 37° C. in CO2 incubator for 4 hours. Medium was removed and cells were washed with phosphate buffered saline. The cells were lysed and luciferase activity was measured in a Luminometer. Luminescence units were plotted against the compound concentrations using Graphpad software. EC50 values of the compounds were defined as the concentration required in stimulating the luciferase activity by 50%.
(In general: Reporter assays use an easily measured gene product as a stand-in for the process of interest.)
For `CC(C)n1c(=O)c(C(=O)NCCCN2CC3CC4CC2CN(C4)C3)c(O)c2ccccc21` (stereo not drawn) [Example 6, N-[(1,4-Diazatricyclo[4.3.1.1^3,8]undec-4-yl)propyl]-4-hydroxy-1-isopropyl-2-oxo-1,2-dihydro-quinoline-3-carboxamide], the EC50 is 667 nM. For the compound `CC(C)n1c(=O)c(C(=O)NC2C3CCN(CC3)C2Cc2ccccc2)c(O)c2ccccc21` (stereo not drawn) [Example 16, N-(2-Benzyl-1-azabicyclo[2.2.2]oct-3-yl)-4-hydroxy-1-isopropyl-2-oxo-1,2-dihydroquinoline-3-carboxamide], the concentration for a half-maximal effect (EC50) amounted to 3920 nM. On the same count and under the same terms, next, `CC(C)n1c(=O)c(C(=O)NC2C3CCN(CC3)C2Cc2cccnc2)c(O)c2ccccc21` (stereo not drawn) [Example 12, N-[2-(Pyridin-3-ylmethyl)-1-azabicyclo[2.2.2]oct-3-yl]-4-hydroxy-1-isopropyl-2-oxo-1,2-dihydroquinoline-3-carboxamide]: 972 nM; `CCCCN1C2CC3CC1CC(NC(=O)c1c(O)c4ccccc4n(C(C)C)c1=O)(C3)C2` [Example 18, N-(2-Butyl-2-azatricyclo[3.3.1.1^3,7]dec-5-yl)-4-hydroxy-1-isopropyl-2-oxo-1,2-dihydroquinoline-3-carboxamide hydrochloride]: 958 nM; `CCN1C2CC3CC1CC(CNC(=O)c1c(O)c4ccccc4n(C(C)C)c1=O)(C3)C2.Cl` [Example 19, N-(2-Ethyl-2-azatricyclo[3.3.1.1^3,7]dec-5-ylmethyl)-4-hydroxy-1-isopropyl-2-oxo-1,2-dihydroquinoline-3-carboxamide hydrochloride]: 645 nM. Take `CC(C)n1c(=O)c(C(=O)NCCCN2C3CC4CC2CC(c2ccccc2)(C4)C3)c(O)c2ccccc21` [Example 5, N-[(5-Phenyl-2-azatricyclo[3.3.1.1^3,7]dec-2-yl)propyl]-4-hydroxy-1-isopropyl-2-oxo-1,2-dihydroquinoline-3-carboxamide hydrochloride]: the concentration giving a half-maximal response (EC50) worked out at 1600 nM. On the same count and under the same terms, next, `CC(C)n1c(=O)c(C(=O)NCCCN2C3CC4CC(C3)CC2C4)c(O)c2cc(F)ccc21` [Example 9, N-[(2-Azatricyclo[3.3.1.1^3,7]dec-2-yl)propyl]-6-fluoro-4-hydroxy-1-isopropyl-2-oxo-1,2-dihydroquinoline-3-carboxamide]: 935 nM; `CC(C)n1c(=O)c(C(=O)NC23CC4CC2CC(N2CCCC2)(C4)C3)c(O)c2ccccc21` (stereo not drawn) [Example 21]: 476 nM; `CC(C)n1c(=O)c(C(=O)NCCCN2C3CC4CC(C3)CC2C4)c(O)c2cc(N)ccc21` [Example 11, N-[(2-Azatricyclo[3.3.1.1^3,7]dec-2-yl)propyl]-6-amino-4-hydroxy-1-isopropyl-2-oxo-1,2-dihydroquinoline-3-carboxamide]: 3000 nM. Same read-out and setting: next, `CC(C)n1c(=O)c(C(=O)NC2CCN(C3C4CC5CC(C4)CC3C5)C2)c(O)c2ccccc21` (stereo not drawn) [Example 3, N-[1-(Tricyclo[3.3.1.1^3,7]dec-2-yl)pyrrolidin-3-yl]-4-hydroxy-1-isopropyl-2-oxo-1,2-dihydroquinoline-3-carboxamide]: 1110 nM; `CCCCN1CCC(NC(=O)c2c(O)c3ccccc3n(C(C)C)c2=O)CC1` [Example 20, N-(1-Butylpiperidin-4-yl)-4-hydroxy-1-isopropyl-2-oxo-1,2-dihydroquinoline-3-carboxamide hydrochloride]: 77 nM.

Regarding `CC(C)n1c(=O)c(C(=O)NCCCN2C3CC4CC(C3)CC2C4)c(O)c2cc(Br)ccc21` [Example 10, N-[(2-Azatricyclo[3.3.1.1^3,7]dec-2-yl)propyl]-6-bromo-4-hydroxy-1-isopropyl-2-oxo-1,2-dihydroquinoline-3-carboxamide], the 50% effective concentration (EC50) was found to be 2800 nM. In the case of `CC(C)n1c(=O)c(C(=O)NCCN2C3CC4CC(C3)CC2C4)c(O)c2ccccc21` [Example 17, N-[(2-Azatricyclo[3.3.1.1^3,7]dec-2-yl)ethyl]-4-hydroxy-1-isopropyl-2-oxo-1,2-dihydroquinoline-3-carboxamide hydrochloride], the EC50 was found to be 1150 nM. On the same count and under the same terms, the result for `CC(C)Cn1c(=O)c(C(=O)NCCCN2C3CC4CC(C3)CC2C4)c(O)c2ccccc21` [Example 2, N-[(2-Azatricyclo[3.3.1.1^3,7]dec-2-yl)propyl]-4-hydroxy-1-isobutyl-2-oxo-1,2-dihydroquinoline-3-carboxamide hydrochloride] reads 4020 nM; that for `CC(C)n1c(=O)c(C(=O)NCCCN2C3CC4CC(C3)CC2C4)c(O)c2cc(Cl)ccc21` [Example 8, N-[(2-Azatricyclo[3.3.1.1^3,7]dec-2-yl)propyl]-6-chloro-4-hydroxy-1-isopropyl-2-oxo-1,2-dihydroquinoline-3-carboxamide], 3080 nM; that for `CC(C)n1c(=O)c(C(=O)NC2C3CCN(CC3)C2Cc2ccccn2)c(O)c2ccccc21` (stereo not drawn) [Example 13, N-[2-(Pyridin-2-ylmethyl)-1-azabicyclo[2.2.2]oct-3-yl]-4-hydroxy-1-isopropyl-2-oxo-1,2-dihydroquinoline-3-carboxamide], 462 nM. For “N-[(2-Azatricyclo[3.3.1.1^3,7]dec-2-yl) propyl]-4-hydroxy-1-isobutyl-6-methoxy-2-oxo-1,2-dihydroquinoline-3-carboxamide [Example 7]”, the EC50 is 1000 nM. The same measure, in the same setting: next, `CC(C)N1C2CC3CC1CC(NC(=O)c1c(O)c4ccccc4n(C(C)C)c1=O)(C3)C2` [Example 15, N-(2-Isopropyl-2-azatricyclo[3.3.1.1^3,7]dec-5-yl)-4-hydroxy-1-isopropyl-2-oxo-1,2-dihydro-quinoline-3-carboxamide]: 2730 nM.

The test system of a further experiment is novel object recognition (cognition) in rats. Description: Object recognition task model. The settings on record: 1 mg/kg p.o. The experiment is classed as in vivo, rat. On the procedure:
The cognition-enhancing properties of compounds of this invention were estimated using a model of animal cognition: the object recognition task model.
Male Wister rats (230-280 grams) obtained from N. I. N. (National Institute of Nutrition, Hyderabad, India) was used as experimental animals. Four animals were housed in each cage. Animals were kept on 20% food deprivation before one day and given water ad libitum throughout the experiment and maintained on a 12 hours light/dark cycle. Also the rats were habituated to individual arenas for 1 hour in the absence of any objects.
One group of 12 rats received vehicle (1 mL/Kg) orally and another set of animals received compound of the formula (I) either orally or i.p., before one hour of the familiar (T1) and choice trial (T2).
The experiment was carried out in a 50×50×50 cm open field made up of acrylic. In the familiarization phase (T1), the rats were placed individually in the open field for 3 minutes, in which two identical objects (plastic bottles, 12.5 cm height×5.5 cm diameter) covered in yellow masking tape alone (a1 and a2) were positioned in two adjacent corners, 10 cm. from the walls. After 24 hours of the (T1) trial for long-term memory test, the same rats were placed in the same arena as they were placed in (T1) trial. Choice phase (T2) rats were allowed to explore the open field for 3 minutes in presence of one familiar object (a3) and one novel object (b) (Amber color glass bottle, 12 cm high and 5 cm in diameter). Familiar objects presented similar textures, colors and sizes. During the T1 and T2 trial, explorations of each object (defined as sniffing, licking, chewing or having moving vibrissae whilst directing the nose towards the object at a distance of less than 1 cm) were recorded separately by stopwatch. Sitting on an object was not regarded as exploratory activity, however, it was rarely observed.
T1 is the total time spent exploring the familiar objects (a 1+a2).
T2 is the total time spent exploring the familiar object and novel object (a3+b).
The object recognition test was performed as described by Ennaceur, A., Delacour, J., 1988, A new one-trial test for neurobiological studies of memory in rats—Behavioural data, Behav. Brain Res., 31, 47-59.
On to `CCN1C2CC3CC1CC(CNC(=O)c1c(O)c4ccccc4n(C(C)C)c1=O)(C3)C2.Cl` [Example 19, N-(2-Ethyl-2-azatricyclo[3.3.1.1^3,7]dec-5-ylmethyl)-4-hydroxy-1-isopropyl-2-oxo-1,2-dihydroquinoline-3-carboxamide hydrochloride], for which the Inference entry was “Active”.

The same experiment, now with this note: 1 mg/kg p.o., choice trial T2 24 hours after T1.
As to `CCN1C2CC3CC1CC(CNC(=O)c1c(O)c4ccccc4n(C(C)C)c1=O)(C3)C2.Cl` [Example 19, N-(2-Ethyl-2-azatricyclo[3.3.1.1^3,7]dec-5-ylmethyl)-4-hydroxy-1-isopropyl-2-oxo-1,2-dihydroquinoline-3-carboxamide hydrochloride], the “Exploration time mean ± S.E.M, Familiar object” value was 8.83 ± 1.54 s and the “Exploration time mean ± S.E.M, Novel object” value was 14.09 ± 1.56 s.
